According to patent publication US20160067301A1, “ANTAGONISM OF ABCG4, LYN KINASE, AND C-CBL E3 LIGASE TO INCREASE PLATELET COUNT AS THERAPY FOR THROMBOCYTOPENIA” (The Trustees of Columbia University in the City of New York, priority 2013, published 2016):
Where a SMILES comes first, the peptide text is derived from it. The star is where a group is joined. Cbz = O=C(OCc1ccccc1)*

Assays:
[1] = tested on: c-CBL phosphorylation in MkPs; assay: c-CBL tyrosine phosphorylation in MkPs in response to TPO (phospho-flow cytometry); type: cell-based, mouse; settings: for c-CBL phosphorylation: 5 min TPO, CD 3 mM or CD-chol 30 min, rHDL 20 μg apoA-I ml-1 2 h, SU6656 10 μg ml-1 2 h
Method: Bone marrow progenitor cells were stimulated with TPO at the indicated concentration for the specified period of time at 37° C. and then immediately diluted with ice-cold buffer and placed on ice to prevent further changes in phosphorylation. Cells were then centrifuged at 800 g for 2 min, and the pellet was resuspended in BD fix buffer (BD Biosciences) for 10 min on ice. The cells were washed with BD flow cytometry staining buffer, centrifuged, and then resuspended in BD cytofix/perm buffer III for 20 min. After this, the cells were washed and resuspended in BD staining buffer and incubated with lineage (Sca1, CD127, CD45R, CD19, CD11b, CD3e, TER-119, CD2, CD8, CD4 and Ly-6G, all FITC; eBioscience) and progenitor cell markers (c-Kit, CD16/CD32 (FcγRII/III), CD34, CD41 and antibody to p-c-CBL (Tyr700 human, Tyr698 mouse; BD Biosciences)) or an isotype control for 30 min on ice. The cells were then washed, resuspended in FACS buffer and run on an LSRII. The amount of phosphorylated c-Cbl was normalized against that of isotype control staining.

[2] = tested on: cell surface c-MPL on MkPs; assay: Cell surface c-MPL expression on MkPs by flow cytometry; type: cell-based, mouse; settings: for cell surface c-MPL levels in MkPs: bone marrow progenitor cells from WT or Abcg4−/− mice, TPO 10 ng/ml, 2 hrs, Tolimidone 10 μM, CRIN-1 1 μM (FIG. 18)
Method: After harvesting bone marrow progenitor cells, RBCs were lysed, and the cells were resuspended in FACS buffer, Bone marrow cells were stained for MkPs as stated above, and c-MPL or isotype control antibodies were included. Cells were then washed and stained with a fluorescently conjugated secondary rabbit-specific antibody to detect the antibody to c-MPL for a further 30 min on ice. Following this, the cells were washed, resuspended in FACS buffer and run on an LSRII flow cytometer. MEPs were identified as Lin^−c-Kit^+CD16/CD32^loCD34^loCD41^−, and MkPs were identified as Lin^−c-Kit^+CD16/CD32^loCD34^loCD41^+.

[3] = tested on: WT and Abcg4−/− mice; assay: Platelet count after a single TPO injection in WT and Abcg4−/− mice; type: in vivo, mouse; settings: for increase in the number of platelets: single dose TPO 50 μg per kg body weight (FIG. 2i)
Description: The Institutional Animal Care and Use Committee of Columbia University approved all the mouse studies. Abcg4−/−, Abcg1−/− Abca1−/− and Abcg1−/− mice in a C57BL/6J background were created as described and used in this study. Abcg4−/− mice were backcrossed onto C57BL/6J mice for more than ten generations. WT (C57BL/6J) and Ldlr−/− (B6.129S7-Ld1rtm1Her) mice were obtained from The Jackson Laboratory (Bar Harbor, Me.). For bone marrow transplantation studies, bone marrow from WT, Abcg4−/−, Abcg1−/− Abca1−/− or Abcg1−/− mice was transplanted into WT or Ldlr−/− recipient mice as described. For atherosclerosis studies, bone marrow-transplanted recipient mice were fed a Western diet (TD88137, Harlan Teklad) for the indicated period of time. Bone marrow-specific retro-viral expression of murine c-MPL^W515L was established as described44 using WT C57BL/6J mice as the recipient and WT C57BL/6J or Abcg4−/− mice as the bone marrow donor. Where indicated, vehicle (saline), rHDL or TPO (R&D Systems) was injected at the indicted dose into the mice through the tail vein. rHDL (CSL-111) was provided by CSL Behring AG, Bern, Switzerland; CSL-111 is composed of human apoA-I and phosphatidylcholine from soy bean in a ratio of 1:150. […]
Complete blood counts were quantified using whole blood collected from tail bleeding. A FORCYTE Veterinary Hematology Analyzer (Oxford Science, Inc.) was used for the analysis.

[4] = tested on: MkPs; assay: MkP proliferation (EdU incorporation, flow cytometry); type: cell-based, mouse; settings: 16 h with TPO
[5] = tested on: bone marrow HSPCs; assay: MK-CFU megakaryocyte colony-forming assay; type: cell-based, mouse; settings: ABCG4-deficient cells (FIG. 13c)
Method: Primary bone marrow HSPCs obtained by FACS were plated in methylcellulose-based medium (5,000 cells per assay) containing TPO (50 ng interleukin-6 (IL-6) (20 ng ml^−1) and IL-3 (10 ng ml^−1) and incubated for 8 d according to the manufacturer's protocol (Megacult-C, Stemcell Technologies). Cultures were fixed, and megakaryocyte colonies were visualized by staining for acetylcholinesterase activity. Nuclei were counterstained with Harris' hematoxylin. Colonies containing more than three megakaryocytes were scored as MK-CFUs.

[6] = Abcg4−/− MkPs, with TPO 30 ng ml-1, CD 3 mM or CD-chol 30 min, rHDL 20 μg ml-1, SU6656 10 μg ml-1 2 h
[7] = WT MkPs, with TPO 30 ng ml-1, CD 3 mM or CD-chol 30 min, rHDL 20 μg ml-1, MG132 10 μM 2 h, SU6656 10 μg ml-1 2 h

CN(C)S(=O)(=O)c1ccc2c(c1)/C(=C/c1cc3c([nH]1)CCCC3)C(=O)N2 [SU6656]
c-CBL phosphorylation ([1]; Abcg4−/− MkPs): markedly decreased c-CBL phosphorylation | difference in response to TPO between WT and Abcg4−/− MkPs (c-CBL phosphorylation, c-MPL expression) ([1]; SU6656 10 μg ml-1 for 2 h): abolished the difference in response to TPO | c-CBL phosphorylation ([1]; WT MkPs): markedly decreased c-CBL phosphorylation | cell surface c-MPL expression [2, 6]: increased cell surface expression of c-MPL | cell surface c-MPL expression [2, 7]: increased cell surface expression of c-MPL

COc1c2c(cc3c1C(CN)N(C)CC3)OCO2 (stereo not shown) [CRIN-1]
cell surface c-MPL levels in MkPs [2]: increases

TPO: Thrombopoietin (R&D Systems), growth factor regulating megakaryocyte and platelet development
increase of platelet count after single injection of TPO, compared with wild type ([3]; Abcg4−/− mice (FIG. 17)): much more pronounced | increase in the number of platelets ([3]; Abcg4−/− mice): 2.1 fold | increase in the number of platelets ([3]; WT mice): 1.4 fold | platelet count after single injection of TPO ([3]; wild type mice (FIG. 17)): induced increase of platelet count

CC(C)C[C@@H](C=O)NC(=O)[C@H](CC(C)C)NC(=O)[C@H](CC(C)C)NC(=O)OCc1ccccc1 [MG132] (Cbz-Leu-Leu-Leu-aldehyde)
cell surface c-MPL expression [2, 7]: increased c-MPL expression to a level similar to that in Abcg4−/− cells

Tolimidone
cell surface c-MPL expression ([2]; Abcg4−/− MkPs from hypercholesterolemic (WTD-fed) Ldlr−/− recipient mice, 10 μM, TPO, 2 h): reduced cell surface c-MPL expression | cell surface expression of c-MPL ([2]; Abcg4−/− MkPs from normocholesterolemic mice (FIG. 14)): completely reversed the increased cell surface expression of c-MPL | cell surface c-MPL expression ([2]; WT MkPs from hypercholesterolemic (WTD-fed) Ldlr−/− recipient mice, 10 μM, TPO, 2 h): reduced cell surface c-MPL expression | cell surface c-MPL levels in MkPs [2]: decreases

methyl-β-cyclodextrin
MkP proliferation (EdU incorporation) ([4]; Abcg4−/− MkPs, CD 3 mM or CD-chol 30 min pretreatment, rHDL 20 μg ml-1 16 h): significantly reduced to levels similar to those in cyclodextrin-treated WT MkPs | MkP proliferation (EdU incorporation) ([4]; Lyn−/− MkPs, cholesterol loading or depletion treatments): unresponsive | MkP proliferation (EdU incorporation) ([4]; WT MkPs, CD 3 mM or CD-chol 30 min pretreatment, rHDL 20 μg ml-1 16 h): decreased the proliferation | c-CBL phosphorylation ([1]; Abcg4−/− MkPs): increased c-CBL phosphorylation | c-CBL phosphorylation ([1]; WT MkPs): increased c-CBL phosphorylation | cell surface c-MPL expression [2, 6]: significantly reduced to levels similar to those in cyclodextrin-treated WT MkPs | number of megakaryocyte colonies [5]: reversed the increase in the number of magakaryecyte colonies
